This is an account of results in US4962109A, “Insecticidally and acaricidally active pyrimidine esters and intermediates therefor” (Imperial Chemical Industries PLC, priority 1985, dated 1990).

What all share (assay type): in vivo
In test [1] the test system is Tetranychus urticae (spider mites - adult). The test can be described thus: Contact test on spider mites - adult (TUa), French bean leaf, mortality. The note with it: 72 h, 500 ppm, contact, 3 days, read-out: TUa grading of mortality. A digest of the protocol:
(§1)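 Pests were supported on a host plant or food medium, and either or both were treated with preparations at 500, 250 or 100 ppm by weight. Mortality was assessed one to three days afterwards and banded into three grades, from A (80-100%) down to C (under 50%).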

Test [2] deals with Diabrotica balteata (rootworm larvae). The test is described as follows: Residual test on rootworm larvae (DB), Filter paper/maize seed, mortality. The note with it: 48 h, 500 ppm, residual, 2 days, read-out: DB grading of mortality. The method in brief:
as §1

A further test deals with Myzus persicae (aphids). The test is described as follows: Contact test on aphids (MP), Chinese Cabbage leaf, mortality. To be noted: 72 h, 500 ppm, contact, 3 days, read-out: MP grading of mortality. A digest of the protocol:
as §1

The test system of test [3] is Tetranychus urticae (spider mites - ova). The test is described as follows: Contact test on spider mites - ova (TUe), French bean leaf, mortality. To be noted: 144 h, 500 ppm, contact, 6 days, read-out: TUe grading of mortality. The method in brief: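 Graded read-out: A 80-100%, B 50-79%, C below 50% mortality or knockdown, assessed usually 1-3 days post-treatment. Liquid preparations at 500, 250 or 100 ppm by weight, from acetone solution diluted in water with 0.01% wetting agent, applied to pests and/or their host plant or food medium.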

In test [4] the test system is Nephotettix cincticeps (green leaf hopper - nymphs). The test is described as follows: Contact test on green leaf hopper nymphs (NC), Rice plant, mortality. The note with it: 48 h, 500 ppm, contact, 2 days, read-out: NC grading of mortality. A digest of the protocol:
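Product dissolved in acetone, diluted in water with 0.01% wetting agent to 500, 250 or 100 ppm; nymphs and/or host rice plants treated. Mortality or knockdown assessed 1–3 days later, graded A (80-100%), B (50-79%), C (<50%).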

The subject of test [5] is Musca domestica (houseflies - adults). The test can be described thus: Knockdown test on houseflies - adults (MD/KD), Cotton wool/sugar. To be noted: 500 ppm, 4 hours, read-out: MD/KD grading of knockdown. A digest of the protocol:
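Adult houseflies exposed to the compound at 500, 250 or 100 ppm in acetone/water with 0.01% wetting agent, on a cotton wool/sugar medium. Knockdown and mortality assessed, graded A (80-100%), B (50-79%) or C (<50%).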

Test [6] relates to Blattella germanica (cockroach nymphs). The test is described as follows: Contact test on cockroach nymphs (BG/C), Plastic pot, mortality. The note with it: 48 h, 500 ppm, contact, 2 days, read-out: BG/C grading of mortality. A digest of the protocol: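 Cockroach nymphs and/or their medium were treated with aqueous preparations at 500, 250 or 100 ppm (acetone solution diluted in water with 0.01% Lissapol NX wetting agent). Mortality or knockdown was assessed typically 1–3 days later and graded A (80–100%), B (50–79%) or C (<50%).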

For test [7], the system named is Heliothis virescens (tobacco budworm - larvae). The test is described as follows: Residual test on tobacco budworm larvae (HV), Cotton leaf, mortality. To be noted: 48 h, read-out: HV grading of mortality. The method in brief: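 Product in acetone diluted with water containing 0.01% Lissapol NX, at 500, 250 or 100 ppm; pests and/or host medium (here cotton leaf) treated. Mortality scored one to three days later, graded A (80-100%), B (50-79%), C (<50%).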

In test [8] the test system is Spodoptera exigua (lesser army worm - larvae). The test is described as follows: Residual test on lesser army worm larvae (SP), Cotton leaf, mortality. To be noted: 48 h, 500 ppm, residual, 2 days, read-out: SP grading of mortality. The method in brief:
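Product dissolved in acetone and diluted in water with 0.01% wetting agent to 500, 250 or 100 ppm; larvae and/or cotton leaf host treated. Mortality or knockdown scored one to three days later and graded A (80-100%), B (50-79%) or C (<50%).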

The test system of test [9] is Musca domestica (houseflies - adults). The test is described as follows: Contact test on houseflies - adults (MD), Cotton wool/sugar, mortality. The note with it: 72 h, 500 ppm, contact, 3 days, read-out: MD grading of mortality. A digest of the protocol: as §1

Consider `CCN(CC)Cc1c(F)c(F)c(COC(=O)C(c2cnc(C(C)(C)C)nc2)C(C)(C)C)c(F)c1F` (racemic) [Compound 176], for which the mortality at 500 ppm in test [1] is 80 to 100%; in test [2], less than 50%; in the test with Myzus persicae (aphids), 80 to 100%; in test [3], less than 50%; in [4], 80 to 100%; in [6], less than 50%. Further, the mortality at 500 ppm in [7], in test [8] and in [9] was 80 to 100% each time. The pest or weed control at 500 ppm in test [5] lay in the range of 80 to 100%.

Take `CCOCc1c(F)c(F)c(COC(=O)C(c2cnc(C(C)(C)C)nc2)C(C)(C)C)c(F)c1F` (racemic) [Compound 186, 2,3,5,6-tetrafluoro-4-(ethoxymethyl)benzyl (RS)-2-[2-(1,1-dimethylethyl)pyrimidin-5-yl]-3,3-dimethylbutanoate]: the mortality at 500 ppm is 80 to 100% in [1]; less than 50% in test [2]; 80 to 100% in the test on Myzus persicae (aphids); less than 50% in test [3]; 80 to 100% in [4]; less than 50% in test [6]. Besides, the results for the mortality at 500 ppm in [7], in [8] and in [9] were 80 to 100%, 80 to 100% and less than 50%, respectively. Besides, the pest or weed control at 500 ppm in test [5] is 80 to 100%.

On to `COCc1c(F)c(F)c(COC(=O)C(c2cnc(C3(C)CCCCC3)nc2)C(C)(C)C)c(F)c1F` (racemic) [Compound 207, 2,3,5,6-tetrafluoro-4-(methoxymethyl)benzyl (RS)-2-[2-(1-methylcyclohexyl)pyrimidin-5-yl]-3,3-dimethylbutanoate], for which the mortality at 500 ppm in test [1] was 80 to 100%; in test [2], less than 50%; in the test on Myzus persicae (aphids), 80 to 100%; in test [3] it was less than 50%; in [4], 80 to 100%; in test [6], less than 50%. For the same compound, the mortality at 500 ppm in test [7], in test [8] and in test [9] was less than 50% each time. Moreover, the pest or weed control at 500 ppm in test [5] is 80 to 100%.

Turning to `CC(C)(C)c1ncc(C(C(=O)OC(C#N)c2cccc(Oc3ccccc3)c2)C(C)(C)C)cn1` (racemic) [Compound 2, (RS)-1-cyano-1-(3-phenoxphenyl)methyl (RS)-2-[2-(1,1-dimethylethyl)pyrimidin-5-yl]-3,3-dimethylbutanoate], the mortality at 500 ppm in [1] is 80 to 100%; in test [2], 80 to 100%; in the test with Myzus persicae (aphids), 80 to 100%; in test [3], less than 50%; in [4], 80 to 100%; in [6], less than 50%. Also, the mortality at 500 ppm in test [7], in test [8] and in test [9] was 80 to 100% each time. In test [5], the pest or weed control at 500 ppm was less than 50%.

Take `COCc1c(F)c(F)c(CSC(=O)C(c2cnc(C(C)(C)C)nc2)C(C)(C)C)c(F)c1F` (racemic) [Compound 195, 4-(methoxymethyl)-2,3,5,6-tetrafluorobenzyl (RS)-2-[2-(1,1-dimethylethyl)pyrimidin-5-yl]-3,3-dimethylbutanthioate]: the mortality at 500 ppm was 80 to 100% in test [1]; 80 to 100% in [2]; 80 to 100% in the test on Myzus persicae (aphids); 80 to 100% in test [3]; 80 to 100% in test [4]; less than 50% in [6]. Further, the mortality at 500 ppm was 80 to 100% in [7], 80 to 100% in test [8] and less than 50% in test [9]. In addition, the pest or weed control at 500 ppm in test [5] was less than 50%.

`COCc1c(F)c(F)c(COC(=O)C(c2cnc(C(C)(C)C)nc2)C(C)(C)C)c(F)c1OC` (racemic) [Compound 217, 2,3,6-trifluoro-5-methoxy-4-(methmethyl)-benzyl (RS)-2-[2-(1,1-dimethylethyl)pyrimidin-5-yl]-3,3-dimethylbutanoate]: the mortality at 500 ppm in [1] is 80 to 100%; in test [2] it was less than 50%; in the test on Myzus persicae (aphids) it was 80 to 100%; in test [3], less than 50%; in test [4], 80 to 100%; in test [6] it was less than 50%. Besides, the mortality at 500 ppm in test [7], in [8] and in [9] was 80 to 100% in each case. The pest or weed control at 500 ppm in test [5] lay in the range of 80 to 100%.

`CC(C)c1ncc([C@H](C(=O)O[C@H](C)c2cccc(Oc3ccccc3)n2)C(C)(C)C)cn1` (racemic) [Compound 74, (RS)-1-(6-phenoxypyridin-2-yl)ethyl (RS)-2-[2-(1-methylethyl)pyrimidin-5-yl]-3,3-dimethylbutanoate]: the mortality at 500 ppm was 80 to 100% in test [1]; less than 50% in [2]; 50 to 79% in the test with Myzus persicae (aphids); less than 50% in test [3]; 80 to 100% in test [4]; less than 50% in [6]. Besides, the mortality at 500 ppm was in the range of 80 to 100% in [7], 80 to 100% in test [8] and 50 to 79% in [9]. The pest or weed control at 500 ppm in [5] is less than 50%.

For the compound `COCc1c(F)c(F)c(COC(=O)C(c2cnc(N(C)C)nc2)C(C)(C)C)c(F)c1F` (racemic) [Compound 199], the mortality at 500 ppm in test [1] fell in the range of 80 to 100%; in test [2] it was 50 to 79%; in the test on Myzus persicae (aphids), 80 to 100%; in test [3] it was 80 to 100%; in test [4] it was 80 to 100%; in test [6] it was 80 to 100%. In addition, the mortality at 500 ppm in [7], in [8] and in [9] was 80 to 100% in each case. For the same compound, in test [5], the pest or weed control at 500 ppm was 80 to 100%.

For the compound `CC(C)(C)c1ncc(C(C(=O)SCc2c(F)c(F)c(CO)c(F)c2F)C(C)(C)C)cn1` (racemic) [Compound 196], the mortality at 500 ppm (in test [1]; in [2]; in the test on Myzus persicae (aphids); in [3]; in test [4]; in test [6]) was less than 50% each time. Further, the values for the mortality at 500 ppm in test [7], in test [8] and in [9] were less than 50%, 80 to 100% and less than 50%, respectively. In addition, the pest or weed control at 500 ppm in test [5] was less than 50%.

Consider `COCc1c(F)c(F)c(COC(=O)C(c2cnc(C3CC3)nc2)C(C)(C)C)c(F)c1F` (racemic) [Compound 135, 2,3,5,6-tetrafluoro-4-(methoxymethyl)benzyl (RS)-2-(2-cyclopropylpyrimidin-5-yl)-3,3-dimethylbutanoate], for which the mortality at 500 ppm is 80 to 100% in test [1]; 80 to 100% in test [2]; 80 to 100% with Myzus persicae (aphids); 80 to 100% in test [3]; 80 to 100% in test [4]; less than 50% in [6]. Further, the mortality at 500 ppm was less than 50% in test [7], 80 to 100% in test [8] and 80 to 100% in [9]. The pest or weed control at 500 ppm in test [5] lay within 80 to 100%.

Take `C=CCC(C(=O)OCc1c(F)c(F)c(COC)c(F)c1F)c1cnc(C(C)(C)C)nc1` (racemic) [Compound 212, 4-(methoxymethyl)-2,3,5,6-tetrafluorobenzyl (RS)-2-[2-(1,1-dimethylethyl)pyrimidin-5-yl]pent-4-enoate]: the mortality at 500 ppm in [1] was 80 to 100%; in test [2] it was less than 50%; with Myzus persicae (aphids), 80 to 100%; in test [3], less than 50%; in [4] it was 80 to 100%; in test [6], less than 50%. Moreover, the mortality at 500 ppm was less than 50% in [7], 50 to 79% in [8] and less than 50% in test [9]. Moreover, the pest or weed control at 500 ppm in test [5] lay in the range of 80 to 100%.
